# According to BigSolDB 2.1:
compound,measurement,setting,value
CCCCc1nc(Cl)c(C(=O)OCOC(=O)OC(C)C)n1Cc1ccc(-c2ccccc2-c2nn[nH]n2)cc1,solubility (mole fraction),"in acetone, 278.15 K",0.00987
same,solubility (mole fraction),"in acetone, 283.15 K",0.0112
same,solubility (mole fraction),"in acetone, 288.15 K",0.0132
same,solubility (mole fraction),"in acetone, 293.15 K",0.0155
same,solubility (mole fraction),"in acetone, 298.15 K",0.019
same,solubility (mole fraction),"in acetone, 303.15 K",0.0234
same,solubility (mole fraction),"in acetone, 308.15 K",0.0299
same,solubility (mole fraction),"in acetone, 313.15 K",0.0364
same,solubility (mole fraction),"in acetonitrile, 278.15 K",0.00131
same,solubility (mole fraction),"in acetonitrile, 283.15 K",0.00154
same,solubility (mole fraction),"in acetonitrile, 288.15 K",0.00195
same,solubility (mole fraction),"in acetonitrile, 293.15 K",0.00247
same,solubility (mole fraction),"in acetonitrile, 298.15 K",0.00326
same,solubility (mole fraction),"in acetonitrile, 303.15 K",0.00445
same,solubility (mole fraction),"in acetonitrile, 308.15 K",0.00597
same,solubility (mole fraction),"in acetonitrile, 313.15 K",0.00816
same,solubility (mole fraction),"in methanol, 278.15 K",0.00111
same,solubility (mole fraction),"in methanol, 283.15 K",0.00128
same,solubility (mole fraction),"in methanol, 288.15 K",0.00156
same,solubility (mole fraction),"in methanol, 293.15 K",0.00209
same,solubility (mole fraction),"in methanol, 298.15 K",0.00277
same,solubility (mole fraction),"in methanol, 303.15 K",0.00361
same,solubility (mole fraction),"in methanol, 308.15 K",0.00508
same,solubility (mole fraction),"in methanol, 313.15 K",0.00772
